For one series, the system named is anti-PS2 antibodies. Description: immunoreactivity to anti-PS2 antibodies. Format: binding.
Series [1] is described as follows: isoelectric point of the purified polypeptide. The class given is physicochemical.
The test system of series [2] is IgG fraction containing anti-hEGF antibody. The series is described as follows: enzyme immuno assay (EIA) for human EGF, plate sensitized with IgG fraction containing anti-hEGF antibody. The class given is binding, rabbit. Conditions: culture solutions of MCF7, MKN-45 and KATO-III; different from EGF. From the text: In order to examine the relationship between the MCF7 cells thus secreting various growth factors and epidermal growth factor (hereinafter referred to as EGF) which is a kind of growth factor, we established an enzyme immuno assay (hereinafter referred to as EIA) which can assay human EGF, and tried to determine it in the culture solutions of MCF7 and human gastric cancer cells MKN-45 and KATO-III. […] It is conceivable that this substance was detected because another antibody was present in the enzyme immuno assay in addition to an antibody against EGF.
An assay system used for detecting the polypeptide of the present invention was prepared in the following manner.
200 μg/ml of an IgG fraction (purified from rabbit serum) containing anti-hEGF antibody was added to 50 mM of Tris-HCl (pH 8.0), and the mixture was poured to a microplate having 96 wells (Sumitomo Bakelite Co.) in an amount of 100 μl/well. After the reaction was conducted at 37° C. for 3 hours, the solution was discarded. Buffer A was further added thereto and blocking was carried out. […]
A plate was washed once with 200 μl/well of buffer A just prior to the use thereof. […] The resultant product was transferred to a Dynamic™ microfluor (for fluorescent enhancer), and the fluorescence was measured with an immunoreader (365 nm excitation, 415 nm fluorescence measurement). […]

In the case of “immunoreactive polypeptide: 60-amino-acid polypeptide, N-terminus EAQ, secreted by cancer cells MCF-7, MKN-45 or KATO-III; part of the PS2 precursor protein (EAQTETCTVAPRERQNCGFPGVTPSQCANKGCCFDDTVRGVPWCFYPNTIDVPPEEECEF; UniProt P04155 25-84, looked up)”, the “immunoreactivity to anti-PS2 antibodies” value in the series on anti-PS2 antibodies is listed as “immunoreactive to anti-PS2 antibodies”. In series [1], the isoelectric point is listed as 4.3. In addition, in series [2], the “immunoreactivity in the EIA” value is given as “immunoreactive to the EIA”.

The record behind these values is patent US5202417A, “60-amino-acid polypeptide” (Takeda Chemical Industries, Ltd., priority 1989, dated 1993).
